Measured values: patent US20120137390A1, “MATERIALS AND METHODS FOR REGENERATION AND TRANSFORMATION OF TREES” (ArborGen Inc., priority 2009, published 2012)

Tests used:
Assay type in all cases: cell-based
[1] = system: E. grandis clone 6084 explants; assay: Adventitious shoot regeneration from explants on regeneration medium, clone 6084
Protocol: (§1) Plant Materials and culture conditions. All elite clones were maintained as shoot clumps in Eucalyptus maintenance (EM) medium (Table 1) in magenta boxes or large disposable vessels and subcultured every 4-6 weeks. Shoot clumps were divided as needed and maintained as stock culture. Unless noted otherwise, all cultures were grown under shaded, cool fluorescent light with a light intensity of 30-40 gE/m^2/s with a photoperiod of 16 hours, and a temperature of 21° C.
(§2) Although leaves, petioles, internodes, floral tissues, and embryogenic tissues can be used for transformation and subsequent regeneration, leaf explants were selected because leaves are abundant. For transformation, explants of E. grandis clones 6075 and 6084 were incubated with Agrobacterium and were placed on co-culture medium, which was the same as the regeneration medium (Table 2) except with the following modifications: the addition of Agrobacterium inducer acetosyringone and the addition of plant growth regulators that are enriched in auxin. MS medium (Murashige and Skoog 1962) was used in the present co-culture medium; however, other salt media, such as Woody Plant Medium (WPM) salts (Loyd and McCown, 1980) or Lepoivre medium, may be used. Also, other Agrobacterium inducers may be used. Plant explants were co-cultured for four days under low light conditions or in the dark on the co-culture medium.
(§3) To test the ability of various cytokinins to stimulate adventitious regeneration, the effects of 4-CPPU, Zeatin, TDZ, meta-topolin, and adenine sulfate were compared. The levels of cytokinins varied from 0.025 to 10 μM. The base medium for this matrix is named H2—2.0 (or H2—2 for short), which is the primary MS-based regeneration medium (Table 2). The medium has been effective to induce shoot regeneration from many Eucalyptus species including E. grandis, E. dunnii, E. camaldulensis, E. urophylla, E. occidentalis, and E. saligna. The antibiotic timentin was added at 250 mg/L final concentration. Shoot regeneration was measured as the frequency of explants produced shoots. Explants were cultured on the regeneration medium for about 8-10 weeks before collection of final regeneration data.

[2] = system: E. grandis clone 6075 explants; assay: Adventitious shoot regeneration from explants on regeneration medium, clone 6075
Protocol: as §1, §2, §3

[3] = system: E. urophylla X grandis S-519; assay: Regeneration screening matrix, clone S-519; settings: meta-topolin at least 2.5 μM, clone S519
Protocol: as §3
(§4) Combinations of meta-mopolin, 4-CPPU, and TDZ that gave the best regeneration across multiple experiments were combined with two standard regeneration media that have worked with other clones in the past to become a regeneration screening matrix for new clonal material.

[4] = system: E. amplifolia clone EA5490; assay: Regeneration screening matrix, clone EA5490; settings: meta-topolin at least 2.5 μM
Protocol: as §3, §4

[5] = lower concentrations of 4-CPPU (0.025, 0.05 μM)

## O=C(Nc1ccccc1)Nc1ccnc(Cl)c1 [4-CPPU, N-(2-Chloro-4-pyridyl)-N′-phenylurea]
[1]; 4-CPPU at 0.1 μM
  adventitious shoot formation (in words): effective
[1]; [5]
  adventitious shoot formation (in words): not effective in induce adventitious shoot formation
[2]; 4-CPPU at 0.1 μM
  adventitious shoot formation (in words): effective
[2]; [5]
  adventitious shoot formation (in words): not effective in induce adventitious shoot formation

## O=C(Nc1ccccc1)Nc1cnns1 [TDZ, 1-phenyl-3-(1,2,3-thiadiazol-5-yl)urea]
[1]; TDZ alone at 0.1 μM
  promotion of shoot regeneration (in words): not effective in promotion of shoot regeneration
[2]; TDZ alone at 0.1 μM
  promotion of shoot regeneration (in words): not effective in promotion of shoot regeneration

## Oc1cccc(CNc2ncnc3nc[nH]c23)c1 [meta-topolin, N^6-(meta-hydroxybenzyl)adenine]
[1]; meta-topolin at least 2.5 μM
  adventitious shoot formation (in words): significant increase in adventitious shoot formation
[2]; meta-topolin at least 2.5 μM
  adventitious shoot formation (in words): significant increase in adventitious shoot formation
[3]
  adventitious shoot regeneration (in words): significantly higher adventitious shoot regeneration
[4]
  adventitious shoot regeneration (in words): significantly higher adventitious shoot regeneration
